Measured values published in patent US20160193364A1, “COMPOSITIONS AND METHODS FOR MODULATING MITOCHONDRIAL PYRUVATE CARRIER ACTIVITY” (University of Utah Research Foundation, priority 2012, published 2016).

Legend:
[1] = biological target: T1, MPC1-D118G (Saccharomyces cerevisiae, UniProt P38857+P53157, D118G); assay: 14C-pyruvate uptake into isolated yeast mitochondria expressing MPC1-D118G; type: biochemical; details: 0.2 mM UK-5099, 2 min preincubation, vs DMSO
T1 construct: expressed in transfected cells; host or cells: S. cerevisiae mpc1Δ strain carrying an MPC1-D118G plasmid; isolated mitochondria
Procedure: (§1) Yeast mitochondria were isolated using a simplified version of the method described by Boldogh and Pon [Wittig et al., 2006]. Briefly, yeast were grown in synthetic 2% raffinose media to an A600˜3.0 and collected. The cells were pelleted, washed with sterile water, re-pelleted, and then frozen at −80° C. Mitochondrial isolation began by thawing the cells on ice, digesting the cell wall with lyticase (Sigma) for one hour to generate spheroplasts. Following 40 minutes in regeneration buffer, spheroplasts were lysed using a Dounce homogenizer. The mitochondria were further purified through several high and low speed centrifugation steps.
(§2) Mitochondria used for pyruvate uptake experiments were extracted from live cells, kept on ice and used within 5 hours of harvest without freezing. An estimate of mitochondrial concentration was calculated using A280. Samples were then diluted to yield equal mitochondrial mass and centrifuged at 10000 rpm for 10 minutes to pellet mitochondria. The supernatant was then removed and the mitochondrial pellet was resuspended in respiratory buffer (120 mM KCl, 5 mM KH2PO4, 1 mM EGTA, and 3 mM HEPES pH 7.4) and placed on ice.
(§3) To initiate pyruvate uptake, 50 μL of mitochondria was added to 100 μL of room temperature respiratory buffer at pH 6.8 in a microcentrifuge tube. […] Five biological replicates were analyzed per group. […]

[2] = test system: MPC1 D118G; assay: Growth of yeast expressing MPC1 D118G in the presence of UK-5099; type: cell-based, Saccharomyces cerevisiae; details: D118G substitution in MPC1; 500 μM UK-5099 in plates
Procedure: (§4) A plasmid library harboring MPC1 mutants was generated by PCR mutagenesis using methods previously described [Hinman et al., 1981]. mpc1Δ mpc3Δ mae1Δ triple mutant yeast cells were transformed with the MPC1 mutant library and plated onto SD-Ura-Leu supplemented 500 μM UK-5099. Plates were incubated at 30° C. for 72 hours and mutant plasmids were isolated from viable colonies, amplified in E. coli., and then transformed into naive mpc1Δ mpc3Δ mae1Δ triple mutant yeast cells to confirm the conferral of resistance to UK-5099. An MPC1 mutant containing a D118G substitution was recovered from this screen. To quantify UK-5099 resistance conferred by the D118G substitution, uniform suspensions of mpc1Δ mpc3Δ mae1Δ triple mutant yeast cells were transformed with 2 μg empty vector, plasmid harboring wild-type MPC1, or plasmid harboring MPC1 D 118G, and then plated onto either SD-Ura, SD-Ura-Leu, or SD-Ura-Leu plus 500 μM UK-5099.

[3] = test system: mae1Δmpc1Δ double mutant; assay: Growth of mae1Δmpc1Δ yeast expressing wild-type MPC1 on glucose medium lacking leucine; type: cell-based, Saccharomyces cerevisiae; details: rescue by transgenic wild-type MPC1; 500 μM UK-5099 in plates
Excerpt: Saccharomyces cerevisiae haploid strain BY4741 (MATa his3 leu2 met15 ura3) was used as the parental wild-type strain in the mae1Δ mpc1Δ spot tests and JRY472 (W303a MATa his3 leu2 met15 trp1 ura3) was used as the strain for all other experiments. Single deletion mutations were created in diploid strains by the standard PCR-based homologous recombination method using KanMX4 (kanamycin resistance), NatMX4 (nourseothricin resistance), or HphMX4 (hygromycin B resistance) cassettes to replace the entire gene, followed by sporulation and tetrad dissection to isolate the desired haploid knockout. Double and triple deletion mutants were created by standard crosses. Deletion strains were verified by PCR.
as §4, with “Plates were incubated at 30° C. for 72 hours and mutant plasmids were isolated from viable colonies, amplified in E. coli., and then transformed into naive mpc1Δ mpc3Δ mae1Δ triple mutant yeast cells to confirm the conferral of resistance to UK-5099. An MPC1 mutant containing a D118G substitution was recovered from this screen.” left out

[4] = biological target: T2, mitochondrial pyruvate carrier (Rattus norvegicus, UniProt P38718+P63031); details: Halestrap 1975; cited from earlier work
T2 sequence (P63031 1-109): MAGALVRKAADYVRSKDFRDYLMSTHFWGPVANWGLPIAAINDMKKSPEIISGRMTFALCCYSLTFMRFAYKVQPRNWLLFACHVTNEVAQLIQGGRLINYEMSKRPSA
T2 sequence (P38718 1-127): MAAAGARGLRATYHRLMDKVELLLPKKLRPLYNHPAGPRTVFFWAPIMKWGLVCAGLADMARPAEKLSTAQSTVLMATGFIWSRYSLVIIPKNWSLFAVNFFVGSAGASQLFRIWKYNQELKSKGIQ

[5] = biological target: T3, MPC1 (Saccharomyces cerevisiae, UniProt P38857+P53157); assay: 14C-pyruvate uptake into isolated yeast mitochondria expressing wild-type MPC1; type: biochemical; details: 0.2 mM UK-5099, 2 min preincubation, vs DMSO
T3 construct: expressed in transfected cells; host or cells: S. cerevisiae mpc1Δ strain carrying an MPC1 plasmid; isolated mitochondria
T3 sequence (P53157 1-130): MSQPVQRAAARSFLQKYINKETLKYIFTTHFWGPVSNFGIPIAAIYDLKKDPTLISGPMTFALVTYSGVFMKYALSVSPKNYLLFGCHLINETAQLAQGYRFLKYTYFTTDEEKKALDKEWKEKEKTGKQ
T3 sequence (P38857 1-129): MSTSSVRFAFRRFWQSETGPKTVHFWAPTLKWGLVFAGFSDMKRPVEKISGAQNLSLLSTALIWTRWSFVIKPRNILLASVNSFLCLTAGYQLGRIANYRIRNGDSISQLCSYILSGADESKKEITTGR
Procedure: as §1, §2, §3

T1 sequence (P53157 whole entry D118G, one chain of several): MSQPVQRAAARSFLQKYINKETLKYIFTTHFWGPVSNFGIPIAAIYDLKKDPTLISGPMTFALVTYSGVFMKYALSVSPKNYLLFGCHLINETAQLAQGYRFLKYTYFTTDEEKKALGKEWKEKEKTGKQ

N#C/C(=C\c1cn(-c2ccccc2)c2ccccc12)C(=O)O [UK-5099]
14C-pyruvate uptake into mitochondria [1]: efficient pyruvate uptake that is resistant to UK-5099
growth in the presence of UK-5099 [2]: conferred UK-5099 resistance
growth on glucose medium lacking leucine [3]: effectively rescued by transgenic expression of wild-type MPC1 in the absence, but not the presence, of UK-5099
inhibition of carrier activity [4]: specific and potent inhibitors of carrier activity
14C-pyruvate uptake into mitochondria [5]: almost completely inhibited
